Assay results: ChEMBL document CHEMBL4052797, “N-alkyl-[1,1'-biphenyl]-2-sulfonamide derivatives as novel broad spectrum anti-epileptic drugs with efficacy equivalent to that of sodium valproate” (2017)
Calls of active or inactive are those of the source.

Key:
Mus musculus [1] = assay: Anticonvulsant activity in maximal electroshock induced seizure mouse model assessed as reduction in convulsions at 25 mg/kg, po; format: functional, organism-based
Mus musculus [2] = assay: Anticonvulsant activity in maximal electroshock induced seizure mouse model assessed as reduction in convulsions at 100 mg/kg, po; format: functional, organism-based
Mus musculus [3] = assay: Anticonvulsant activity in subcutaneous pentylenetetrazole-induced seizure mouse model assessed as reduction in convulsions at 100 mg/kg, po; format: functional, organism-based
Mus musculus [4] = assay: Anticonvulsant activity in maximal electroshock induced seizure mouse model assessed as reduction in convulsions at 50 mg/kg, po; format: functional, organism-based
Rattus norvegicus [5] = assay: Anticonvulsant activity in amygdala kindling rat model assessed as change in after discharge threshold at 100 mg/kg, po relative to control; format: functional
Rattus norvegicus [6] = assay: Anticonvulsant activity in amygdala kindling rat model assessed as change in after discharge duration at 30 mg/kg, po (reference value: -5.5%); format: functional
Mus musculus [7] = assay: Anticonvulsant activity in po dosed subcutaneous pentylenetetrazole-induced seizure mouse model assessed as reduction in convulsions; format: functional
Rattus norvegicus [8] = assay: Anticonvulsant activity in amygdala kindling rat model assessed as change in after discharge threshold at 30 mg/kg, po relative to control; format: functional
Rattus norvegicus [9] = assay: Anticonvulsant activity in amygdala kindling rat model assessed as change in after discharge duration at 100 mg/kg, po (reference value: -5.5%); format: functional
Mus musculus [10] = assay: Anticonvulsant activity in po dosed maximal electroshock induced seizure mouse model assessed as reduction in convulsions; format: functional
Mus musculus [11] = assay: Anticonvulsant activity in ip dosed maximal electroshock induced seizure mouse model assessed as suppression in hindlimb tonic extension; format: functional
Mus musculus [12] = assay: Anticonvulsant activity in ip dosed subcutaneous pentylenetetrazole-induced seizure mouse model assessed no observable episode of clonic seizure; format: functional
Mus musculus [13] = assay: Anticonvulsant activity in subcutaneous pentylenetetrazole-induced seizure mouse model assessed as reduction in convulsions at 50 mg/kg, po; format: functional, organism-based
Mus musculus [14] = assay: Therapeutic index, ratio of TD50 for neurotoxicity in po dosed mouse to ED50 for po dosed maximal electroshock induced seizure mouse model
Mus musculus [15] = assay: Therapeutic index, ratio of TD50 for neurotoxicity in po dosed mouse to ED50 for po dosed 6-Hz induced seizure mouse model
Mus musculus [16] = assay: Anticonvulsant activity in po dosed 6-Hz induced seizure mouse model; format: functional
Mus musculus [17] = assay: Neurotoxicity in po dosed mouse by rotarod test; format: functional
Rattus norvegicus [18] = assay: Anticonvulsant activity in amygdala kindling rat model assessed as change in after discharge threshold at 300 mg/kg, po relative to control; format: functional
Rattus norvegicus [19] = assay: Anticonvulsant activity in amygdala kindling rat model assessed as change in after discharge duration at 600 mg/kg, po (reference value: -5.5%); format: functional
Rattus norvegicus [20] = assay: Anticonvulsant activity in amygdala kindling rat model assessed as change in after discharge threshold at 600 mg/kg, po relative to control; format: functional
Rattus norvegicus [21] = assay: Anticonvulsant activity in amygdala kindling rat model assessed as change in after discharge duration at 300 mg/kg, po (reference value: -5.5%); format: functional
Mus musculus [22] = assay: Anticonvulsant activity in subcutaneous pentylenetetrazole-induced seizure mouse model assessed as reduction in convulsions at 25 mg/kg, po; format: functional, organism-based

CNS(=O)(=O)c1ccccc1-c1cccc(Cl)c1
Activity (Mus musculus [1]): inactive | Activity (Mus musculus [2]): Active

CNS(=O)(=O)c1ccccc1-c1ccc(F)cc1
Activity (Mus musculus [2]): Active | Activity (Mus musculus [3]): inactive | Activity (Mus musculus [4]): Active

CNS(=O)(=O)c1ccccc1-c1ccc(OC)cc1
Activity (Mus musculus [2]): inactive | Activity (Mus musculus [3]): inactive

CN(C)S(=O)(=O)c1ccccc1-c1ccoc1
Activity (Mus musculus [2]): inactive

NS(=O)(=O)Cc1noc2ccccc12 [ZONISAMIDE]
Activity (Rattus norvegicus [5]): 45.9% | Activity (Rattus norvegicus [6]): 7% | ED50 (Mus musculus [7]): > 500 mg/kg | Activity (Rattus norvegicus [8]): 5.1% | Activity (Rattus norvegicus [9]): -37.6% | ED50 (Mus musculus [10]): 20 mg/kg

CC1(C)O[C@@H]2[C@@H](CO[C@@]3(COS(N)(=O)=O)OC(C)(C)O[C@@H]23)O1 [TOPIRAMATE]
ED50 (Mus musculus [11]): 33 mg/kg | ED50 (Mus musculus [12]): > 800 mg/kg

NS(=O)(=O)c1ccccc1-c1ccccc1
Activity (Mus musculus [2]): Active | Activity (Mus musculus [4]): Active

CNS(=O)(=O)c1ccccc1-c1ccccc1OC
Activity (Mus musculus [2]): inactive | Activity (Mus musculus [3]): inactive

CNS(=O)(=O)c1ccccc1-c1ccccc1Cl
Activity (Mus musculus [2]): Active | Activity (Mus musculus [4]): Active

CN(C)S(=O)(=O)c1ccccc1-c1ccccc1
Activity (Mus musculus [13]): inactive | Activity (Mus musculus [4]): inactive

CNS(=O)(=O)c1ccccc1-c1ccccc1
Activity (Mus musculus [13]): inactive | Activity (Mus musculus [2]): Active | Activity (Mus musculus [4]): Active

CN(C)S(=O)(=O)c1ccccc1-c1ccco1
Activity (Mus musculus [2]): inactive

CCS(=O)(=O)c1ccccc1-c1ccccc1
Activity (Mus musculus [2]): inactive | Activity (Mus musculus [3]): Active

CCCNS(=O)(=O)c1ccccc1-c1ccccc1
Activity (Mus musculus [2]): Active

CN(C)S(=O)(=O)c1cccc(Cl)c1
Activity (Mus musculus [4]): Active

CNS(=O)(=O)c1ccccc1-c1ccc(Cl)cc1
Activity (Mus musculus [1]): inactive | Activity (Mus musculus [2]): Active

CNS(=O)(=O)c1ccccc1-c1ccccc1F
Activity (Mus musculus [13]): Active | Activity (Rattus norvegicus [5]): 352.5% | Ratio TD50/ED50 (Mus musculus [14]): 6.7 | Ratio TD50/ED50 (Mus musculus [15]): 2 | Activity (Mus musculus [1]): Active | ED50 (Mus musculus [16]): 53 mg/kg | Activity (Mus musculus [2]): Active | Activity (Mus musculus [3]): Active | Activity (Rattus norvegicus [9]): -1.4% | TD50 (Mus musculus [17]): 107 mg/kg | Activity (Mus musculus [4]): Active | ED50 (Mus musculus [10]): 16 mg/kg

CN(C)S(=O)(=O)c1ccccc1-c1cccnc1
Activity (Mus musculus [3]): inactive

CN(C)S(=O)(=O)c1ccccc1-c1ccncc1
Activity (Mus musculus [2]): inactive

CN(C)S(=O)(=O)c1ccccc1-c1cccs1
Activity (Mus musculus [2]): inactive | Activity (Mus musculus [3]): inactive

CNS(=O)(=O)c1ccccc1-c1cccc(F)c1
Activity (Mus musculus [1]): inactive | Activity (Mus musculus [2]): Active

CNS(=O)(=O)c1ccccc1-c1cccc(OC)c1
Activity (Mus musculus [2]): inactive

CS(=O)(=O)c1ccccc1-c1ccccc1F
Activity (Mus musculus [2]): Active

CCCC(CCC)C(=O)[O-].[Na+] [VALPROATE SODIUM]
Activity (Rattus norvegicus [18]): -5.4% | Activity (Rattus norvegicus [19]): -22.5% | Activity (Rattus norvegicus [20]): 81.3% | Activity (Rattus norvegicus [21]): 11.1% | ED50 (Mus musculus [16]): 394 mg/kg | TD50 (Mus musculus [17]): 396 mg/kg | ED50 (Mus musculus [10]): 337 mg/kg

CCNS(=O)(=O)c1ccccc1-c1ccccc1
Activity (Mus musculus [1]): inactive | Activity (Mus musculus [22]): inactive | Activity (Mus musculus [2]): Active | Activity (Mus musculus [4]): Active

O=S(=O)(c1ccccc1-c1ccccc1)C(F)(F)F
Activity (Mus musculus [2]): inactive | Activity (Mus musculus [3]): inactive

CN(C)S(=O)(=O)c1ccccc1-c1ccccn1
Activity (Mus musculus [3]): inactive
